According to article PMC7726145, “Fine-tuning of lysine side chain modulates the activity of histone lysine methyltransferases” (Scientific Reports, 2020):
Entries after “also recorded” stand apart in the source; their conditions may differ. Values belong to the compound of their own block, whether it stands above or below them.

Columns and labels:
Format in all cases: biochemical
SETD8 = biological target: T1, SETD8 (Homo sapiens, UniProt Q9NQR1); assay: SETD8 kinetics by MALDI-TOF MS enzymatic assay
T1 construct: SETD8 residues 186–352; His6 (N); made in house; host or cells: Escherichia coli Rosetta BL21 (DE3)pLysS
T1 sequence (Q9NQR1 186-352 isoform Q9NQR1-2): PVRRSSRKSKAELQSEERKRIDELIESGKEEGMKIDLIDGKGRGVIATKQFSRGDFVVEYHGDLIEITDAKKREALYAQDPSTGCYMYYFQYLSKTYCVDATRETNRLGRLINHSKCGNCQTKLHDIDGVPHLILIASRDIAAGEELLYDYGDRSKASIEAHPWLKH
Procedure: To determine the substrate specificity of SETD8 towards the two histone peptides bearing the unnatural lysine analogues KO and KN, a kinetic investigation was carried out employing a MALDI-TOF MS enzymatic assay[17],[18],[21]. KMT-catalyzed methylation of the oxalysine- and azalysine-containing histone peptides was characterized by slower substrate conversion rates (kcat) compared to their respective natural sequences, a result that we attribute to their poorer nucleophilic character due to the electron-withdrawing properties of the O and NH moieties. Furthermore, a highly hydrophobic channel of the methyltransferases is poorly tailored for significant electrostatic changes in the hydrophobic nature of the lysine side chain, likely leading to a larger penalty for desolvation of γ-azalysine and γ-oxalysine. Combined with the altered Km values for H4KO20 and H4KN20, this translated into a generally slightly worse catalytic efficiency for these two lysine analogues.
(§1) Human KMTs enzymes were expressed and purified as previously described[36]–[38]. The methyltransferase plasmid (SETD8 residues 186–352, SETD7 residues 1–366, GLP residues 951–1235, G9a residues 913–1193) transformed into Escherichia coli Rosetta BL21 (DE3)pLysS cells. Cultures were grown at 37 °C in LB media containing kanamycin and chloramphenicol. Cells were grown to an OD600 of 0.5–0.6 (approximately 2.5–3 h), at which point they induced by isopropyl β-D-1-thiogalactopyranoside (IPTG) and they were transferred to a temperature of 16 °C overnight. After letting the cells grow at this temperature, they were then harvested and lysed by sonication. The lysate was centrifuged at high-speed to remove unbroken cells. The supernatant was then centrifuged to further clean the lysate. Purification of the N-terminally his6-tagged KMTs was performed using Ni–NTA affinity chromatography column, which was prewashed with lysis buffer. Target KMT enzyme was then eluted using a linear gradient concentration of imidazole. The elute was then concentrated with centrifugal concentrators (Millipore). All KMT enzymes were further purified by gel filtration on a Superdex 75 column (GE Healthcare) on an AKTA system. Purified proteins were concentrated employing Amicon Ultra Centrifugal Filter Units (Millipore) with suitable molecular weight cutoffs. Proteins concentrations were determined using the Nanodrop DeNovix DS-11 spectrophotometer and the purity was monitored by SDS-PAGE on a 4–15% gradient polyacrylamide gel (Bio-Rad).
Kinetics studies were performed as described[17],[18],[21]. A solution of histone peptide (0–300 μM), was added to a solution of SAM (116 μM) in assay buffer (50 mM Tris, pH 8.0) at room temperature (final volume of 100 μL). […]

SETD7 [1] = biological target: T2, SETD7 (Homo sapiens, UniProt Q8WTS6); assay: MALDI-TOF MS methylation assay with SETD7
T2 construct: SETD7 residues 1–366; His6 (N); made in house; host or cells: Escherichia coli Rosetta BL21 (DE3)pLysS
T2 sequence (Q8WTS6 1-366): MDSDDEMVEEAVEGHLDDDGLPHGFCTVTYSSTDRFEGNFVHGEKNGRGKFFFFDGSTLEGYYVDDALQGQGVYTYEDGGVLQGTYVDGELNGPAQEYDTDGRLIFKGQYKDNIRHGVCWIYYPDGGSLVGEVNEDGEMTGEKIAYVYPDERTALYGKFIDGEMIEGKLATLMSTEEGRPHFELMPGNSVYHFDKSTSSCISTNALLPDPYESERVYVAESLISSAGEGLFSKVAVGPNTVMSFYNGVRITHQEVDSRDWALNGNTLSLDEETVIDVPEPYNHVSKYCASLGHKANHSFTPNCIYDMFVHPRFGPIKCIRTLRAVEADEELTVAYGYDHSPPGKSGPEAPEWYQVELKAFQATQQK
Procedure: Histone peptides bearing the lysine analogues KO and KN were examined as substrates for the recombinantly expressed human KMTs using MALDI-TOF MS assays as a direct method to monitor histone methylation. We tested whether KO and KN can be methylated by di- and trimethyltransferases GLP and G9a, and monomethyltransferases SETD7 and SETD8. Samples containing the human KMT enzyme (2 µM), histone peptide (100 µM), and SAM (500 µM with GLP and G9a; 200 µM with SETD8 and SETD7) in Tris buffer (50 mM, pH 8.0) were incubated for 1 h at 37 °C. Following established enzymatic conditions[17]–[19],[21],[22], all lysine-containing histone peptides were efficiently methylated by the four KMTs (Fig. 5a,d,g,j, respectively). […] In the G9a assay, traces (< 5%) of the dimethylated species H3KO9me2 were also observed. […] We further analyzed the product distribution of these two peptide substrates with G9a and GLP throughout the time course of methylation.
Red spectra show 1 h reactions at 37 °C including KMTs (2 µM), histone peptide (100 µM) and SAM (500 µM for GLP/G9a and 200 µM for SETD8/SED7) and black spectra the no-enzyme controls.
The lack of methylation of these two analogues with SETD7 indicated a selectivity between KMTs.
as §1
Histone methyltransferase assay was carried out as described in 30 µL final total volume[17]–[19],[21],[22]. In brief, purified KMTs enzymes (2 µM of each enzyme per each reaction) were incubated with 100 µM of purified histone peptides in the methyltransferase assay buffer Tris–HCl (pH 8.0) and methyl donor SAM (500 µM with GLP and G9a; 200 µM with SETD8 and SETD7) for 1 h at 37 °C. 3 µL of reaction mixture was quenched with an equal amount of MeOH (1:1 ratio). Then, 3 µL of this mixture was added to an equal amount volume of a standard α-cyano-4-hydroxycinnamic acid matrix solution for spotting on a MALDI plate (Stainless ground steel 96/12 Bruker-Daltonik, Bremen-Germany). The mass spectra of peptides were analyzed by MALDI-TOF MS. […]

SETD7 [2] = biological target: T2, SETD7; assay: Inhibition of SETD7-catalyzed methylation of 14-mer H3K4; settings: for IC50: SETD7 200 nM, 14-mer H3K4 10 µM, inhibitor 1-200 µM, 4 repeats (dose-response of H3KO4)
Procedure: Residual activity assays monitoring the KMT-catalyzed methylation of the histone peptides were then carried out, aimed at providing competitive data of these two substrates as compared to the 14-mer H3K9 peptide for the active site of G9a/GLP, and to determine whether the two lysine analogues inhibit G9a- and GLP-catalyzed methylation of H3K9.
as §1
Supplementary Figure 19. […] Error bars represent the standard deviation from 4 repeats.

G9a [3] = biological target: T3, G9a (Homo sapiens, UniProt Q96KQ7); assay: Residual activity / inhibition of G9a-catalyzed methylation of H3K9; settings: G9a 100 nM; 14-mer H3K9 5 µM; analogue 100 µM
T3 construct: G9a residues 913–1193; His6 (N); made in house; host or cells: Escherichia coli Rosetta BL21 (DE3)pLysS
T3 sequence (Q96KQ7 913-1193): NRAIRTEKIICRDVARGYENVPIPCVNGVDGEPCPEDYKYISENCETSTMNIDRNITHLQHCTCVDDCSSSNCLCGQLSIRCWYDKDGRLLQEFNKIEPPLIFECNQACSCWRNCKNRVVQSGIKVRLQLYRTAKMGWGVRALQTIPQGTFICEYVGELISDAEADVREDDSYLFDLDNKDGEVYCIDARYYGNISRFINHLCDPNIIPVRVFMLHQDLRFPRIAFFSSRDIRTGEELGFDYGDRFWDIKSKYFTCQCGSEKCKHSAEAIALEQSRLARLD
Procedure: as §1, with “system.” for “system. Purified proteins were concentrated employing Amicon Ultra Centrifugal Filter Units (Millipore) with suitable molecular weight cutoffs. Proteins concentrations were determined using the Nanodrop DeNovix DS-11 spectrophotometer and the purity was monitored by SDS-PAGE on a 4–15% gradient polyacrylamide gel (Bio-Rad).”

GLP [4] = biological target: T4, GLP (Homo sapiens, UniProt Q9H9B1); assay: Residual activity / inhibition of GLP-catalyzed methylation of H3K9; settings: GLP 100 nM; 14-mer H3K9 5 µM; analogue 100 µM
T4 construct: GLP residues 951–1235; His6 (N); made in house; host or cells: Escherichia coli Rosetta BL21 (DE3)pLysS
T4 sequence (Q9H9B1 982-1266): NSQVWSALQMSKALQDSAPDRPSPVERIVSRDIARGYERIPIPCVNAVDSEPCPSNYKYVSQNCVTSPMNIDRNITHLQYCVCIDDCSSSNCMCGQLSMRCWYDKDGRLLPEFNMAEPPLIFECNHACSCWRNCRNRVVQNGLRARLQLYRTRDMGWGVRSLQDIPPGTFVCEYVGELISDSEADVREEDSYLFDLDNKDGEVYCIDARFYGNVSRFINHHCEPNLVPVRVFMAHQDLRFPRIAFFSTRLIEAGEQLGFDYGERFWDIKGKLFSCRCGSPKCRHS
Procedure: as §1, with “system.” for “system. Purified proteins were concentrated employing Amicon Ultra Centrifugal Filter Units (Millipore) with suitable molecular weight cutoffs. Proteins concentrations were determined using the Nanodrop DeNovix DS-11 spectrophotometer and the purity was monitored by SDS-PAGE on a 4–15% gradient polyacrylamide gel (Bio-Rad).”

GLP [5] = biological target: T4, GLP; assay: MALDI-TOF MS methylation assay with GLP; settings: GLP 2 µM, peptide 100 µM, SAM 500 µM, Tris 50 mM, pH 8.0, 1 h at 37 °C
Procedure: as §1, with “system.” for “system. Purified proteins were concentrated employing Amicon Ultra Centrifugal Filter Units (Millipore) with suitable molecular weight cutoffs. Proteins concentrations were determined using the Nanodrop DeNovix DS-11 spectrophotometer and the purity was monitored by SDS-PAGE on a 4–15% gradient polyacrylamide gel (Bio-Rad).”

G9a [6] = biological target: T3, G9a; assay: MALDI-TOF MS methylation assay with G9a; settings: G9a 2 µM, peptide 100 µM, SAM 500 µM, Tris 50 mM, pH 8.0, 1 h at 37 °C
Procedure: as §1, with “system.” for “system. Purified proteins were concentrated employing Amicon Ultra Centrifugal Filter Units (Millipore) with suitable molecular weight cutoffs. Proteins concentrations were determined using the Nanodrop DeNovix DS-11 spectrophotometer and the purity was monitored by SDS-PAGE on a 4–15% gradient polyacrylamide gel (Bio-Rad).”

GLP [7] = biological target: T4, GLP; assay: NMR analysis of GLP-catalyzed methylation; settings: GLP 8 µM; peptide 400 µM; SAM 2 mM; Tris-d11 buffer pD 8.0; 1 h at 37 °C; 1H NMR and 1H-13C HSQC
Procedure: as §1, with “system.” for “system. Purified proteins were concentrated employing Amicon Ultra Centrifugal Filter Units (Millipore) with suitable molecular weight cutoffs. Proteins concentrations were determined using the Nanodrop DeNovix DS-11 spectrophotometer and the purity was monitored by SDS-PAGE on a 4–15% gradient polyacrylamide gel (Bio-Rad).”

[8] = SETD8 2 µM, peptide 0–300 μM, SAM 116 μM, 50 mM Tris, pH 8.0, room temperature, 10 min, MALDI-TOF MS, value ± SD, replicates
[9] = SETD7 2 µM, peptide 100 µM, SAM 200 µM, Tris 50 mM, pH 8.0, 1 h at 37 °C

Compound: GGAKRHRK^20VLRDNIQ [H4K20, native peptide fragment 13–27 of H4]
kcat/Km (SETD8; SETD8 2 µM, peptide 0–300 μM, SAM 116 μM, 50 mM Tris, pH 8.0, room temperature, 10 min, MALDI-TOF MS): 86.8 M⁻¹ s⁻¹ | Km (SETD8; [8]): 104 ± 25.3 µM | kcat (SETD8; [8]): 0.009 ± 0.00183 s⁻¹ | order in which SETD8 tolerates modifications at the γ position (kinetics) (SETD8; comparison of kinetics data including H4KC20 of ref 18): H4K20 > H4KC20 > H4KN20 > H4KO20

monomethylated species (traces) with SETD7 (SETD7 [1]; [9]): < 5% | IC50 (SETD7 [2]): 38.9 µM
Compound: C[C@H](N)C(=O)N[C@@H](CCCNC(=N)N)C(=O)N[C@H](C(=O)N[C@@H](COCCN)C(=O)N[C@@H](CCC(N)=O)C(=O)N[C@H](C(=O)N[C@@H](C)C(=O)N[C@@H](CCCNC(=N)N)C(=O)N[C@@H](CCCCN)C(=O)N[C@@H](CO)C(=O)N[C@H](C(=O)NCC(=O)NCC(=O)N[C@@H](CCCCN)C(=O)N[C@@H](C)C(N)=O)[C@@H](C)O)[C@@H](C)O)[C@@H](C)O [H3KO4]

methylation products with GLP (GLP [5]): complete trimethylation | methylation products with G9a (G9a [6]): complete trimethylation | methylation observed by NMR (GLP [7]): resulted in a signal of H3K9me3
Compound: ARTKQTARK^9STGGKA [H3K9, native histone peptide, N-terminal 15-residues of H3]
inhibition of G9a in words (G9a [3]): outcompetes H3KO9 and H3KN9 peptides for binding in the active site of G9a/GLP | inhibition of GLP in words (GLP [4]): outcompetes H3KO9 and H3KN9 peptides for binding in the active site of G9a/GLP

monomethylated species (traces) with SETD7 (SETD7 [1]; [9]): < 5% | methylation with SETD7 at high concentration, 1 h (SETD7 [1]; SETD7 10 µM, SAM 1 mM, 37 °C, 1 h): poorly catalyzed traces | inhibition of SETD7 in words (SETD7 [2]; 14-mer H3K4 substrate): inactive | IC50 (SETD7 [2]): > 100 µM
Compound: C[C@H](N)C(=O)N[C@@H](CCCNC(=N)N)C(=O)N[C@H](C(=O)N[C@@H](CNCCN)C(=O)N[C@@H](CCC(N)=O)C(=O)N[C@H](C(=O)N[C@@H](C)C(=O)N[C@@H](CCCNC(=N)N)C(=O)N[C@@H](CCCCN)C(=O)N[C@@H](CO)C(=O)N[C@H](C(=O)NCC(=O)NCC(=O)N[C@@H](CCCCN)C(=O)N[C@@H](C)C(N)=O)[C@@H](C)O)[C@@H](C)O)[C@@H](C)O [H3KN4]
methylation with SETD7 (SETD7 [1]; [9]): very low levels of methylation were detected; also recorded: significantly reduced | methylation with SETD7 at high concentration, 3 h (SETD7 [1]; SETD7 10 µM, SAM 1 mM, 37 °C, 3 h): poorly catalyzed traces; also recorded: only traces of H3KO4me and H3KN4me observed
